Legend:
Details in all cases: recombinant enzyme
Cytochrome P450 2C9 = Cytochrome P450 2C9 (Homo sapiens, UniProt P11712); assay: (§1) Drug activation in human Hep3B cells assessed as human CYP2C9-mediated drug metabolism-induced cytotoxicity measured as decrease in cell viability at 300 uM pre-incubated with BSO for 18 hrs followed by incubation with compound for 3 hrs in presence of NADPH measured after 24 hrs in absence of compound, CYP3A4 and NADPH by cell titer-glo luminescence assay relative to BSO alone
Cytochrome P450 3A4 = Cytochrome P450 3A4 (Homo sapiens, UniProt P08684); assay: as §1, with “CYP3A4-mediated” for “CYP2C9-mediated”
Cytochrome P450 2D6 = Cytochrome P450 2D6 (Homo sapiens, UniProt P10635); assay: as §1, with “CYP2D6-mediated” for “CYP2C9-mediated”
Cytochrome P450 2D6, sequence (P10635 whole entry): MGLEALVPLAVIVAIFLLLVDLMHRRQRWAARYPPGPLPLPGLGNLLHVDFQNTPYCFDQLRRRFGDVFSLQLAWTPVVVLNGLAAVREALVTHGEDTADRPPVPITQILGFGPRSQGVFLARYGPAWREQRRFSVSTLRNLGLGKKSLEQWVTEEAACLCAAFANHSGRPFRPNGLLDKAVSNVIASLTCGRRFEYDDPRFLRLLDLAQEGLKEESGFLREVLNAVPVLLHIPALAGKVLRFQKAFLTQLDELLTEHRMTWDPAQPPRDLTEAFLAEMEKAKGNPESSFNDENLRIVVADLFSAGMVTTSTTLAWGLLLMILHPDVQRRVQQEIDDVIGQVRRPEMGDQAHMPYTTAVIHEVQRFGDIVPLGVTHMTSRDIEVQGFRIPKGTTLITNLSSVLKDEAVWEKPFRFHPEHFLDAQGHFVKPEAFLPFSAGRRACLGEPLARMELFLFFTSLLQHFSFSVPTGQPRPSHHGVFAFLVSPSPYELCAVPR

Cytochrome P450 2C9, sequence (P11712 whole entry): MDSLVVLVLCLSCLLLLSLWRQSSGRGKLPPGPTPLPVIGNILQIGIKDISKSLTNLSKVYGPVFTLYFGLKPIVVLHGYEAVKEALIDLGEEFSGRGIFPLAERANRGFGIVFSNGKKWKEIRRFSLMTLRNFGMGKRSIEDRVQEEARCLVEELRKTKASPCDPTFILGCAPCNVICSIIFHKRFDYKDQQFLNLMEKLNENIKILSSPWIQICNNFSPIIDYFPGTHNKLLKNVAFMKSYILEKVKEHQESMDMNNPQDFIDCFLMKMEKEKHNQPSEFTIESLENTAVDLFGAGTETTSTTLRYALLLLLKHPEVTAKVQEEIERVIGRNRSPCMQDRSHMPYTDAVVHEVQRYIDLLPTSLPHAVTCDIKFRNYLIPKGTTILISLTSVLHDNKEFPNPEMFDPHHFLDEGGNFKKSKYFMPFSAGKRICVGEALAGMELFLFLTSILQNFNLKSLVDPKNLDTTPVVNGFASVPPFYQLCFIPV
Cytochrome P450 3A4, sequence (P08684 whole entry): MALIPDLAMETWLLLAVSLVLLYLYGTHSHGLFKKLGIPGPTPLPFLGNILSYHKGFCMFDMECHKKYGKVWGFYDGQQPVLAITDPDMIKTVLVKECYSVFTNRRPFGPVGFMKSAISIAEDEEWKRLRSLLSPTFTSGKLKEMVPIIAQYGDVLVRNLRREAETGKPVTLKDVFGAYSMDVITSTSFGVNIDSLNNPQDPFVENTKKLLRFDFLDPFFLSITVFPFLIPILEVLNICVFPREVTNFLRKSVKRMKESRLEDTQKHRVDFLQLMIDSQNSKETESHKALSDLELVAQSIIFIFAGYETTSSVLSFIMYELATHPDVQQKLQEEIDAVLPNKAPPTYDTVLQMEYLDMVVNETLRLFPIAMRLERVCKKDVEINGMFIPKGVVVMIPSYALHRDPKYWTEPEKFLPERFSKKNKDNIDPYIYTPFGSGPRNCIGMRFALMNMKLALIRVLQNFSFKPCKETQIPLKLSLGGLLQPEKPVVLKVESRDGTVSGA

## Nc1ccc(C(=O)O)c(O)c1 [AMINOSALICYLIC ACID]
Cytochrome P450 2C9
  FC: 1
Cytochrome P450 3A4
  FC: 1
Cytochrome P450 2D6
  FC: 1

## CC(C)NCC(O)c1cc(O)cc(O)c1 (centres undefined) [METAPROTERENOL]
Cytochrome P450 2C9
  FC: 1
Cytochrome P450 3A4
  FC: 1
Cytochrome P450 2D6
  FC: 1

## Nc1nc2nc[nH]c2c(=S)[nH]1 [THIOGUANINE]
Cytochrome P450 2C9
  FC: 1
Cytochrome P450 3A4
  FC: 1
Cytochrome P450 2D6
  FC: 1

## CN(Cc1cnc2nc(N)nc(N)c2n1)c1ccc(C(=O)N[C@@H](CCC(=O)O)C(=O)O)cc1 [METHOTREXATE]
Cytochrome P450 3A4
  FC: 1
Cytochrome P450 2D6
  FC: 1

## O=C(O)c1cccnc1 [NIACIN]
Cytochrome P450 3A4
  FC: 1
Cytochrome P450 2D6
  FC: 1

## CC(NC(C)(C)C)C(=O)c1cccc(Cl)c1 (centres undefined) [BUPROPION]
Cytochrome P450 2C9
  FC: 1
Cytochrome P450 3A4
  FC: 1
Cytochrome P450 2D6
  FC: 1

## CN1Cc2c(N)cccc2C(c2ccccc2)C1 (centres undefined) [NOMIFENSINE]
Cytochrome P450 2C9
  FC: 0.3
Cytochrome P450 3A4
  FC: 0.3
Cytochrome P450 2D6
  FC: 0.3

## CC(C)(C)NCC(O)c1ccc(O)c(CO)c1 (centres undefined) [ALBUTEROL]
Cytochrome P450 2C9
  FC: 1
Cytochrome P450 3A4
  FC: 1
Cytochrome P450 2D6
  FC: 1

## CC(=O)N(O)CCCCCNC(=O)CCC(=O)N(O)CCCCCNC(=O)CCC(=O)N(O)CCCCCN [DEFEROXAMINE]
Cytochrome P450 2C9
  FC: 1
Cytochrome P450 3A4
  FC: 1
Cytochrome P450 2D6
  FC: 1

## O=C(O)c1cc(-c2ccccc2)nc2ccccc12 [CINCHOPHEN]
Cytochrome P450 2C9
  FC: 1
Cytochrome P450 3A4
  FC: 1
Cytochrome P450 2D6
  FC: 1

## COCCc1ccc(OCC(O)CNC(C)C)cc1 (centres undefined) [METOPROLOL]
Cytochrome P450 2C9
  FC: 1
Cytochrome P450 3A4
  FC: 1
Cytochrome P450 2D6
  FC: 1

## NNC(=O)c1ccncc1 [ISONIAZID]
Cytochrome P450 2C9
  FC: 1
Cytochrome P450 3A4
  FC: 1
Cytochrome P450 2D6
  FC: 1

## Cc1ccnc2c1NC(=O)c1cccnc1N2C1CC1 [NEVIRAPINE]
Cytochrome P450 2C9
  FC: 1
Cytochrome P450 3A4
  FC: 1
Cytochrome P450 2D6
  FC: 1

## Cc1ccc(C(=O)c2cc(O)c(O)c([N+](=O)[O-])c2)cc1 [TOLCAPONE]
Cytochrome P450 2C9
  FC: 1
Cytochrome P450 3A4
  FC: 1
Cytochrome P450 2D6
  FC: 1

## [H]/N=C(/N)N[C@H]1[C@H](O)[C@@H](O)[C@H](O[C@@H]2O[C@@H](C)[C@](O)(C=O)[C@H]2O[C@@H]2O[C@@H](CO)[C@H](O)[C@@H](O)[C@@H]2NC)[C@@H](N/C(N)=N\[H])[C@@H]1O [STREPTOMYCIN]
Cytochrome P450 2C9
  FC: 1
Cytochrome P450 3A4
  FC: 1
Cytochrome P450 2D6
  FC: 1

## Cc1cccc(C)c1OCC(C)N (centres undefined) [MEXILETINE]
Cytochrome P450 2C9
  FC: 1
Cytochrome P450 3A4
  FC: 1
Cytochrome P450 2D6
  FC: 1

## Nc1ccn([C@@H]2CS[C@H](CO)O2)c(=O)n1 [LAMIVUDINE]
Cytochrome P450 2C9
  FC: 1
Cytochrome P450 3A4
  FC: 1
Cytochrome P450 2D6
  FC: 1

## C[C@H](CS)C(=O)N1CCC[C@H]1C(=O)O [CAPTOPRIL]
Cytochrome P450 2C9
  FC: 1
Cytochrome P450 3A4
  FC: 1
Cytochrome P450 2D6
  FC: 1

## COC(=O)CCc1ccc(OCC(O)CNC(C)C)cc1 (centres undefined) [ESMOLOL]
Cytochrome P450 2C9
  FC: 1
Cytochrome P450 3A4
  FC: 1
Cytochrome P450 2D6
  FC: 1

## C[C@@](Cc1ccc(O)c(O)c1)(NN)C(=O)O [CARBIDOPA ANHYDROUS]
Cytochrome P450 2C9
  FC: 0.6
Cytochrome P450 3A4
  FC: 0.6
Cytochrome P450 2D6
  FC: 0.6

## CC(=O)CC(c1ccccc1)c1c(O)c2ccccc2oc1=O (centres undefined) [WARFARIN]
Cytochrome P450 2C9
  FC: 1
Cytochrome P450 3A4
  FC: 1
Cytochrome P450 2D6
  FC: 1

## NC[C@H]1O[C@H](O[C@H]2[C@H](O)[C@@H](O[C@H]3O[C@H](CO)[C@@H](O)[C@H](N)[C@H]3O)[C@H](N)C[C@@H]2N)[C@H](O)[C@@H](O)[C@@H]1O [KANAMYCIN]
Cytochrome P450 2C9
  FC: 1
Cytochrome P450 3A4
  FC: 1
Cytochrome P450 2D6
  FC: 1

## CCC1(c2ccccc2)C(=O)NCNC1=O [PRIMIDONE]
Cytochrome P450 2C9
  FC: 1
Cytochrome P450 3A4
  FC: 1
Cytochrome P450 2D6
  FC: 1

## COC1=CC(=O)C[C@@H](C)[C@]12Oc1c(Cl)c(OC)cc(OC)c1C2=O [GRISEOFULVIN]
Cytochrome P450 2C9
  FC: 1
Cytochrome P450 3A4
  FC: 1
Cytochrome P450 2D6
  FC: 1

## C[C@H]1O[C@@H](O[C@H]2[C@@H](O)C[C@H](O[C@H]3[C@@H](O)C[C@H](O[C@H]4CC[C@@]5(C)[C@H](CC[C@@H]6[C@@H]5C[C@@H](O)[C@]5(C)[C@@H](C7=CC(=O)OC7)CC[C@]65O)C4)O[C@@H]3C)O[C@@H]2C)C[C@H](O)[C@@H]1O [DIGOXIN]
Cytochrome P450 2C9
  FC: 1
Cytochrome P450 3A4
  FC: 1
Cytochrome P450 2D6
  FC: 1

## Nc1nc2ncc(CNc3ccc(C(=O)N[C@@H](CCC(=O)O)C(=O)O)cc3)nc2c(=O)[nH]1 [FOLIC ACID]
Cytochrome P450 2C9
  FC: 0.6
Cytochrome P450 3A4
  FC: 0.6
Cytochrome P450 2D6
  FC: 0.6

## CCCC(CCC)C(=O)O [VALPROIC ACID]
Cytochrome P450 2C9
  FC: 1
Cytochrome P450 3A4
  FC: 1
Cytochrome P450 2D6
  FC: 1

## O=C(O)COc1ccc(C(=O)c2cccs2)c(Cl)c1Cl
Cytochrome P450 2C9
  FC: 1
Cytochrome P450 3A4
  FC: 1
Cytochrome P450 2D6
  FC: 1

## NC(=O)N1c2ccccc2C=Cc2ccccc21 [CARBAMAZEPINE]
Cytochrome P450 2C9
  FC: 1
Cytochrome P450 3A4
  FC: 1
Cytochrome P450 2D6
  FC: 1

## Oc1ncnc2[nH]ncc12 [ALLOPURINOL]
Cytochrome P450 2C9
  FC: 1
Cytochrome P450 3A4
  FC: 1
Cytochrome P450 2D6
  FC: 1

## NC(=O)c1cnccn1 [PYRAZINAMIDE]
Cytochrome P450 2C9
  FC: 1
Cytochrome P450 3A4
  FC: 1
Cytochrome P450 2D6
  FC: 1

## Cc1cn([C@H]2C=C[C@@H](CO)O2)c(=O)[nH]c1=O [STAVUDINE]
Cytochrome P450 2C9
  FC: 1
Cytochrome P450 3A4
  FC: 1
Cytochrome P450 2D6
  FC: 1

## CN(C)c1ccc(O)c2c1C[C@H]1C[C@H]3[C@H](N(C)C)C(O)=C(C(N)=O)C(=O)[C@@]3(O)C(O)=C1C2=O [MINOCYCLINE]
Cytochrome P450 2C9
  FC: 1
Cytochrome P450 3A4
  FC: 1
Cytochrome P450 2D6
  FC: 1

## CCc1cccc2c3c([nH]c12)C(CC)(CC(=O)O)OCC3 (centres undefined) [ETODOLAC]
Cytochrome P450 2C9
  FC: 1
Cytochrome P450 3A4
  FC: 1
Cytochrome P450 2D6
  FC: 1

## CCOc1ccccc1OCCN[C@H](C)Cc1ccc(OC)c(S(N)(=O)=O)c1 [TAMSULOSIN]
Cytochrome P450 2C9
  FC: 1
Cytochrome P450 3A4
  FC: 1

## CS(=O)(=O)Nc1ccc([N+](=O)[O-])cc1Oc1ccccc1 [NIMESULIDE]
Cytochrome P450 2C9
  FC: 1

## CCCCCCCCCCCCOS(=O)(=O)O.CC[C@H]1OC(=O)[C@H](C)[C@@H](O[C@H]2C[C@@](C)(OC)[C@@H](O)[C@H](C)O2)[C@H](C)[C@@H](O[C@@H]2O[C@H](C)C[C@H](N(C)C)[C@H]2O)[C@](C)(O)C[C@@H](C)C(=O)[C@H](C)[C@@H](O)[C@]1(C)O
Cytochrome P450 3A4
  FC: 1
Cytochrome P450 2D6
  FC: 1

## CC(C(=O)O)c1ccc2oc(-c3ccc(Cl)cc3)nc2c1 (centres undefined) [BENOXAPROFEN]
Cytochrome P450 2C9
  FC: 1
Cytochrome P450 3A4
  FC: 1
Cytochrome P450 2D6
  FC: 1

## CC(C(=O)O)c1ccc(-c2ccccc2)c(F)c1 (centres undefined) [FLURBIPROFEN]
Cytochrome P450 2C9
  FC: 1
Cytochrome P450 3A4
  FC: 1
Cytochrome P450 2D6
  FC: 1

## Cc1oncc1C(=O)Nc1ccc(C(F)(F)F)cc1 [LEFLUNOMIDE]
Cytochrome P450 3A4
  FC: 1
Cytochrome P450 2D6
  FC: 1

## CS(=O)(=O)OCCCCOS(C)(=O)=O [BUSULFAN]
Cytochrome P450 2C9
  FC: 1
Cytochrome P450 3A4
  FC: 1
Cytochrome P450 2D6
  FC: 1

## Nc1ccn([C@H]2CC[C@@H](CO)O2)c(=O)n1 [ZALCITABINE]
Cytochrome P450 2C9
  FC: 1
Cytochrome P450 3A4
  FC: 1
Cytochrome P450 2D6
  FC: 1

## Nc1nc(NC2CC2)c2ncn([C@H]3C=C[C@@H](CO)C3)c2n1 [ABACAVIR]
Cytochrome P450 2C9
  FC: 1
Cytochrome P450 3A4
  FC: 1
Cytochrome P450 2D6
  FC: 1

## CN(C)/N=N/c1[nH]cnc1C(N)=O [DACARBAZINE]
Cytochrome P450 3A4
  FC: 1
Cytochrome P450 2D6
  FC: 1

## Sc1ncnc2nc[nH]c12 [MERCAPTOPURINE ANHYDROUS]
Cytochrome P450 3A4
  FC: 1
Cytochrome P450 2D6
  FC: 1

## NC(=O)c1ncn([C@@H]2O[C@H](CO)[C@@H](O)[C@H]2O)n1 [RIBAVIRIN]
Cytochrome P450 3A4
  FC: 1
Cytochrome P450 2D6
  FC: 1

## CCCCNC(=O)NS(=O)(=O)c1ccc(C)cc1 [TOLBUTAMIDE]
Cytochrome P450 2D6
  FC: 1

Reference: ChEMBL document CHEMBL4477225, “Development of a cell viability assay to assess drug metabolite structure-toxicity relationships” (Bioorg Med Chem Lett, 2016)
